One assay deals with T1, rat native SERT (Rattus norvegicus, UniProt P31652).
T1 construct: at human recombinant and rat native monoamine transporters; from tissue
Nature of the assay: [3H]-citalopram binding, rat cortical membranes. To be noted: mean (95% CI), 3 to 9 experiments, read-out: Transporter Binding: pKi SERT (converted). An excerpt: The in vitro pharmacology of TD-9855 (4-[2-(2, 4, 6-trifluorophenoxymethyl)phenyl]piperidine; Figure 1) at human recombinant and rat native monoamine transporters was characterized as described previously ([Tsuruda et al., 2010]; [Shen et al., 2013]). Radioligands were sourced commercially (Perkin Elmer Life Sciences or GE Healthcare Life Sciences). Briefly, membranes prepared from HEK293 (Human Embryonic Kidney 293) cells stably-transfected with human recombinant SERT (HEK293-hSERT), NET (HEK293-hNET), or DAT ([…]) were incubated for 1hr at 22°C in the absence, or presence, of TD-9855 and [^3H]-citalopram (1.0nM) for SERT, [^3H]-nisoxetine (2.0nM) for NET, and [^3H]-WIN35428 (3.0nM) for DAT in 50mM Tris-HCl, 120mM NaCl, 5mM KCl, 0.025% BSA, 100 μM ascorbic acid, pH 7.4. Rat cortical membrane preparations were incubated with [^3H]-citalopram (2.0nM) for SERT or [^3H]-nisoxetine (4.0nM) for NET for 1hr at 22°C. […] Binding and uptake assays were terminated by rapid filtration and radioactivity, determined by liquid scintillation spectroscopy.

The target of another assay is T2, SERT (Rattus norvegicus, UniProt P31652).
T2 construct: from tissue; host or cells: rat lumbar spinal cord after oral dosing
The assay can be described thus: Ex vivo SERT occupancy in rat spinal cord with PK/PD modeling. To be noted: estimate (% CV). How it is done:
TD-9855 Rat Administration and Sampling — Rats (n = 6/timepoint/dose level) received a single oral dose of TD-9855 (0.3, 1, 5, 10, 30, and 60mg/kg) and were euthanized by decapitation at specified time points (0.5, 2, 4, 6, and 8hr for 5mg/kg dose level; 2hr for 0.3, 1, 10, 30, and 60mg/kg dose levels) post-administration. Spinal cords were dissected for ex vivo transporter occupancy and PK assessments from the same animals. The spinal cord was harvested by hydraulic extrusion using phosphate-buffered saline, and the lumbar segment dissected and frozen on dry ice. The remaining spinal cord segments were collected and homogenized in water (25% w/w) for PK analysis. All samples were stored at -80 °C until analysis.
A kinetic radioligand binding assay was used to determine NET and SERT occupancy in rat spinal cord, as described previously ([Bourdet et al., 2012]).
Rat PK/PD Modeling — PK/PD parameters were estimated by a compartmental modeling approach (WinNonlin Version 5.0.1, Pharsight Corporation). One- and two-compartment PK models with first-order absorption and elimination were evaluated. The one-compartment model was selected. The pharmacodynamic model was an effect compartment Emax model linked directly to the central PK compartment (WinNonlin PK Model 3, PD Model 101). Selection of models was based upon best fit in terms of visual inspection, Akaike Information Criteria, and weighted residual sum of squares using the Gauss-Newton minimization method. The following parameters were estimated:
Emax (% occupancy): Maximal SERT or NET occupancy in spinal cord
keo (hr^-1): First-order equilibration rate constant between the central pharmacokinetic compartment and the pharmacodynamic effect compartment

T2 sequence (P31652 whole entry): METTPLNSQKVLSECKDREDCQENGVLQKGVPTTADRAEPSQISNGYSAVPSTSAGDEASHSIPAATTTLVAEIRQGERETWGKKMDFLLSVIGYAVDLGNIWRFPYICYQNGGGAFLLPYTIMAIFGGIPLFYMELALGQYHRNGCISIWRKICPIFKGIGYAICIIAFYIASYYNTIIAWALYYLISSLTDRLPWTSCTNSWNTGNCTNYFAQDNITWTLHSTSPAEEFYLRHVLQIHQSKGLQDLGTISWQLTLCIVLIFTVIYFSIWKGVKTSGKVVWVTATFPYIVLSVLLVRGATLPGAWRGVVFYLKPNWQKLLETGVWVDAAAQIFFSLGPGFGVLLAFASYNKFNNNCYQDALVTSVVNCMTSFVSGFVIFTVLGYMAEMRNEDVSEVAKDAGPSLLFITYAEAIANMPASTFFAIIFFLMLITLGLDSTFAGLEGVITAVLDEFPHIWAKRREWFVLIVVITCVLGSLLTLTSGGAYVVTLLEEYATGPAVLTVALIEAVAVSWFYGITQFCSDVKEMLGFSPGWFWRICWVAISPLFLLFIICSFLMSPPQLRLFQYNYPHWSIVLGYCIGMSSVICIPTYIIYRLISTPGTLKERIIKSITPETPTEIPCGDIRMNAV
T1 sequence (P31652 whole entry): as above

Usually EC50 stands for the concentration needed to bring the measured effect to its halfway point. For the molecule `Fc1cc(F)c(OCc2ccccc2C2CCNCC2)c(F)c1` [TD-9855, 4-[2-(2,4,6-trifluorophenoxymethyl)phenyl]piperidine], at rat native SERT, the Ki is 3.16 nM. Moreover, on SERT (rat spinal cord, oral 0.3-60mg/kg), the “Emax (% Occupancy), SERT” value is listed as 79.0 (53) % Occupancy. The half-maximal effective concentration (EC50) at SERT (rat spinal cord, plasma EC50) is 158 nM. In addition, the “keo, SERT” value at SERT (rat, equilibration rate constant plasma to effect compartment) was 11.0 (86) hr^-1.

These data come from paper PMC4368888, “Preclinical to Clinical Translation of CNS Transporter Occupancy of TD-9855, a Novel Norepinephrine and Serotonin Reuptake Inhibitor” (International Journal of Neuropsychopharmacology, 2015).
